Data on nine compounds can be found in patent US8071535B2, “Guanidinium derivatives for improved cellular transport” (The Regents of the University of California, priority 2003, dated 2011).

Marks after values point to notes of the source that are not given here.

Test [1] deals with 10T½ cells. In words: Cellular uptake by FACS, 10T½ cells. Type of test: cell-based, mouse. As to conditions: for Mean Fluorescence Intensities of Treated Cells According to FACS, 10T1/2: 0.5 μM of each compound for 1 hr, average intensity of 10,000 individual cells; for Cellular uptake / transport efficiency compared to poly-Arg peptide BODIPY-Cys(Arg)9 (5) / Cellular uptake (in words): FACS; for Cellular uptake / transport efficiency compared to poly-Arg peptide BODIPY-Cys(Arg)9 (5): in words; for Enhancement of cellular uptake upon guanidinylation: relative to autofluorescence, guanidinoglycoside-BODIPY vs aminoglycoside-BODIPY; for Cellular uptake (in words): slightly above the autofluorescence of the cell itself. The procedure: (§1) 10T½ cells, an adherent non-transformed mouse fibroblast cell line, were purchased from ATCC and used before their 20th passage. HeLa cells, a common human cancer cell line, were a gift from Dr. Susan S. Taylor. Both cell lines were cultured in Dulbecco's modified eagle medium containing 10% fetal bovine serum at 37° C. in an 8% CO2 environment. For each experiment, cells were seeded onto 4 cm tissue culture plates (Nunc) and allowed to grow overnight to […].
(§2) Compounds 1-5 identified in Table 1, below (0.5-1 μM), were added to each dish and incubated at 37° C./8% CO2 for 0.5-1 hr. Cells were then washed once in PBS, trypsinized with 500 μl ATV solution (Gibco) for 3 minutes, pelleted in a fixed angle centrifuge for 5 minutes at 5,000×G, then brought up in 1 mL PBS. Each sample was quickly (within 5 minutes) analyzed on a FACS VantageSE cell sorter (Becton-Dickinson) using the 488 nm argon/krypton laser line and a 530 nm band pass emission filter. 2,000-10,000 cells were counted per sample.
(§3) Examples of FACS histograms are presented in FIG. 3, which illustrates the fluorescence intensity versus cell count for 10,000 individual 10T½ cells following a 1 hour incubation with 0.5 μM of: (A) tobra-BODIPY (Red) and guanidine-tobra-BODIPY (White); (B) neo-BODIPY (Red) and guanidine-neo-BODIPY (White); (C) BODIPY-Cys(Arg)9 (Red), or guanidine-neo-BODIPY (White); and (D) uptake of BODIPY-Cys(Arg)9 inhibited by guanidine-neomycin B (6) at 0 μM (Red), 10 μM (Black), 200 μM (Green).
(§4) In a typical experiment, cell cultures were treated with 0.5-5 μM of each compound for 0.5-1 hr, washed twice with buffer, cleaved with trypsin, and quantified for fluorescence at 530 nm.
A general note: Flow cytometry measures light scatter and fluorescence of single cells or particles in a stream.

The test system of test [2] is 10T½ cells. The test is described as follows: Competition experiment: uptake of BODIPY-Cys(Arg)9 in presence of unlabeled guanidino-neomycin B (6), FACS. Type of test: cell-based, mouse. The procedure:
as §2, §3

Test [3] concerns HeLa cells. The test is described as follows: Cellular uptake by FACS, HeLa cells. Type of test: cell-based, human. Conditions: 1 μM of each compound for 0.5 hr; average intensity of 2,000 individual cells; about 10-fold higher instrumental gain than 10T1/2. The procedure:
as §1, §2, §4

The test system of test [4] is Rev-Response-Element (RRE). As to conditions: in words; cited from earlier work.
The subject of test [5] is HeLa cells. The test is described as follows: Scanning confocal fluorescence microscopy, cellular localization. Type of test: cell-based, human. As to conditions: confocal cross sections of living cells; 5 μM, 30 minute treatment. Here is the method: The uptake of BODIPY-containing glycosides by two different eukaryotic cell lines was also studied using fluorescence microscopy.
as §4
(A) and (B) show cross-sectional images of two individual HeLa cells in solution following a 30 minute treatment with 5 μM of guanidine-neo-BODIPY and cleavage with trypsin.
Microscopy experiments have been conducted using both fluorescein-labeled and BODIPY-labeled guanidinoglycosides. The relative intensities of individual cells, following treatment with either fluorescent aminoglycosides or guanidinoglycosides are consistent with the trends from FACS experiments.

In the case of “BODIPY-Cys(Arg)9 hydrochloride (CRRRRRRRRR; N-acetyl, C-amide, BODIPY on Cys) [BODIPY-Cys (Arg)9 (5), poly-Arg transduction peptide ace-…-am labelled with BODIPY on Cys]”, the “Mean Fluorescence Intensities of Treated Cells According to FACS, 10T1/2” value (“Mean Fluorescence Intensities … 10T1/2” for short) with 10T½ cells [1] is 280. For the same compound, the “Mean Fluorescence Intensity, 10T1/2, in presence of 10 μM (6)” value in the test with 10T½ cells [2] (0.5 μM (5) + 10 μM guanidino-neomycin B (6), 1 hr) turned out to be 110. The “Mean Fluorescence Intensity, 10T1/2, in presence of 50 μM (6)” value with 10T½ cells [2] (0.5 μM (5) + 50 μM guanidino-neomycin B (6), 1 hr) is given as 90. Besides, in the test with 10T½ cells [2] (0.5 μM (5) + 200 μM guanidino-neomycin B (6), 1 hr), the “Mean Fluorescence Intensity, 10T1/2, in presence of 200 μM (6)” value was 70. For the same compound, the “Mean Fluorescence Intensities of Treated Cells According to FACS, HeLa” value (“Mean Fluorescence Intensities … HeLa” for short) in the test on HeLa cells [3] was 2,000.

As for “guainidino-tobra-BODIPY hydrochloride [Guanidino-Tobra-BODIPY (2)]”, in the test with 10T½ cells [1], the “Mean Fluorescence Intensities … 10T1/2” value amounted to 240 and the “Cellular uptake / transport efficiency compared to poly-Arg peptide BODIPY-Cys(Arg)9 (5)” value is listed as “approximately the same transport efficiency”. The “Mean Fluorescence Intensities … HeLa” value in the test with HeLa cells [3] was 2,100.

`NC[C@H]1O[C@H](O[C@H]2[C@H](O)[C@@H](O[C@H]3O[C@H](CO)[C@@H](O)[C@H](N)[C@H]3O)[C@H](N)C[C@@H]2N)[C@H](N)C[C@@H]1O` [tobramycin, reference compound]: in the test on 10T½ cells [1], the “Enhancement of cellular uptake upon guanidinylation” value is reported as “approximately 10 fold”.

For the compound `NC(N)=NC[C@@H]1O[C@H](O[C@H]2[C@@H](O)[C@H](O[C@@H]3[C@H](O)[C@@H](N=C(N)N)C[C@@H](N=C(N)N)[C@H]3O[C@H]3O[C@H](CN=C(N)N)[C@@H](O)[C@H](O)[C@H]3N=C(N)N)O[C@@H]2CO)[C@H](N=C(N)N)[C@@H](O)[C@@H]1O` [guanidine-neomycin B (6, guanidino-neomycin B], in test [4], the “Affinity to the RRE” value is given as “substantial affinity”. Further, in the test with 10T½ cells [2] (FACS, unlabeled competitor 10-200 μM, in words), the “Inhibition of the transport of BODIPY-Cys(Arg)9 into cells” value is “effectively inhibits”.

Regarding “guanidino-Neo-BODIPY hydrochloride [Guanidino-Neo-BODIPY (4)]”, in the test on 10T½ cells [1], the “Mean Fluorescence Intensities … 10T1/2” value was found to be 430 and the “Cellular uptake / transport efficiency compared to poly-Arg peptide BODIPY-Cys(Arg)9 (5)” value is on record as “better cellular uptake”. For the same compound, the Cellular localization entry in the test on HeLa cells [5] is reported as “two distinct types of cellular localization”. In addition, the “Mean Fluorescence Intensities … HeLa” value with HeLa cells [3] is 7,900.

`NC[C@@H]1O[C@H](O[C@H]2[C@@H](O)[C@H](O[C@@H]3[C@@H](O)[C@H](N)C[C@H](N)[C@H]3O[C@H]3O[C@H](CN)[C@@H](O)[C@H](O)[C@H]3N)O[C@@H]2CO)[C@H](N)[C@@H](O)[C@@H]1O` [neomycin B, reference compound]: the “Enhancement of cellular uptake upon guanidinylation” value in the test with 10T½ cells [1] is recorded as “approximately 20 fold”.

For the compound guanidino-tobramycin, the “Affinity to the RRE” value in test [4] was “substantial affinity”.

As to “tobra-BODIPY hydrochloride [Tobra-BODIPY (1)]”, in the test with 10T½ cells [1], the “Mean Fluorescence Intensities … 10T1/2” value is listed as 60 and the “Cellular uptake (in words)” value is “poor cellular uptakes”. For the same compound, the “Mean Fluorescence Intensities … HeLa” value in the test with HeLa cells [3] was 1,000.

Regarding “neo-BODIPY hydrochloride [Neo-BODIPY (3)]”, in the test on 10T½ cells [1], the “Mean Fluorescence Intensities … 10T1/2” value was found to be 60 and the “Cellular uptake (in words)” value is “poor cellular uptakes”. The “Mean Fluorescence Intensities … HeLa” value in the test with HeLa cells [3] is ~1,400^(e).
